Data as given in US20250109444A1, “DNA HYPOMETHYLATION AS A PREDICTIVE MARKER FOR CANCER THERAPY” (Fred Hutchison Cancer Center, priority 2023, published 2025).
One block for each compound: values may come before it.

Tests used:
Assay type in all cases: cell-based
[1] = Sensitization to AKT inhibitors by pharmacologically induced DNA hypomethylation (DNMT inhibitors); details: pharmacologically induced DNA hypomethylation with DNMT inhibitor
Description: (§1) FIGS. 4A, 4B. Modulation of global DNA methylation changes the sensitivity to AKT inhibitors. (4A) Cell viability curves for solvent (circle) and SAMe (square) treated LNCaP cells. The difference in cell viability in response to AKTi (ipatasertib) treatment is shown. (4B) Decitabine (DAC) and GSK344862 results in sensitization.

LNCaP cells [2] = assay: Co-treatment with EZH2 inhibitor and ipatasertib, cell viability; details: co-treatment with AKT inhibitor ipatasertib
Description: (§2) FIGS. 5A-5C. […] Increased dependency on PRC2-mediated chromatin repression is observed with AKT inhibition, creating a therapeutic vulnerability. Co-treatment with AKTi and PRC2 inhibitors (such as EZH2 or EED inhibitors) results in synergistic effects.

[3] = system: DHMC and non-DHMC cell lines; assay: Cell viability of DHMC and non-DHMC cancer cell lines treated with AKT inhibitors; details: DHMC vs non-DHMC cell lines, wide spectrum of cancer cell lines, in vitro
Description: FIGS. 2A, 2B. […] (2A) Cell viability curves for DHMC (black) and non-DHMC (light gray) cell lines treated with 3 different AKT inhibitors (afuresertib, AZD5363, ipatasertib). (2B) IC50s for DHMCs (black) and non-DHMCs (gray).

LNCaP cells [4] = assay: Cell viability of solvent vs SAMe treated LNCaP cells in response to AKTi (ipatasertib); details: prolonged treatment with methyl donor SAMe vs solvent
Description: as §1

MALME3 cells = assay: Co-treatment with EED inhibitor and ipatasertib
Description: as §2

[5] = system: DHMC and non-DHMC cell lines; assay: Cell viability of DHMC and non-DHMC cancer cell lines treated with histone evicting anthracyclines; details: DHMC vs non-DHMC cell lines, wide spectrum of cancer cell lines

Compound: CCc1c(C#N)c(SC(C(N)=O)c2ccccc2)nc(N(C)C)c1C#N (stereo not drawn) [GSK-3484862]
Change of sensitivity to AKT inhibitors (AKTi) [1]: increases sensitivity to AKT inhibitors

Compound: CC[C@H](C)n1cc(C)c2c(C(=O)NCc3c(C)cc(C)[nH]c3=O)cc(-c3ccc(N4CCNCC4)nc3)cc21 [GSK126]
Interaction with ipatasertib (cell viability) (LNCaP cells [2]): synergistic reduction in cell viability

Sensitivity of DHMC compared to non-DHMC (cell viability curves, IC50s) [3]: increased sensitivity
Compound: Cn1ncc(Cl)c1-c1cc(C(=O)N[C@H](CN)Cc2cccc(F)c2)sc1Cl [afuresertib, Afuresertib]

Compound: C[S+](CC[C@H](N)C(=O)O)C[C@H]1O[C@@H](n2cnc3c(N)ncnc32)[C@H](O)[C@@H]1O (stereo partly drawn) [SAMe, S-Adenosylmethionine]
Change of sensitivity to AKTi (cell viability) (LNCaP cells [4]): decreases sensitivity to AKTi

Compound: CN(C)[C@H]1CN(C2CCc3cccc(F)c32)C[C@@H]1c1ccc(N2CCN(S(C)(=O)=O)CC2)cc1 (stereo partly drawn) [A395]
Interaction with ipatasertib (MALME3 cells): Synergistic interaction

Compound: CC[C@@]1(O)C[C@H](O[C@H]2C[C@H](N(C)C)[C@H](O[C@H]3C[C@H](O)[C@H](O[C@H]4CCC(=O)[C@H](C)O4)[C@H](C)O3)[C@H](C)O2)c2c(cc3c(c2O)C(=O)c2c(O)cccc2C3=O)[C@H]1C(=O)OC [aclarubicin]
Sensitivity of DHMC compared to non-DHMC (cell viability curves, IC50s) [5]: increased sensitivity

Sensitivity of DHMC compared to non-DHMC (cell viability curves, IC50s) [3]: increased sensitivity
Compound: NC1(C(=O)N[C@@H](CCO)c2ccc(Cl)cc2)CCN(c2nc[nH]c3nccc2-3)CC1 [AZD5363, Capivasertib]

Sensitivity of DHMC compared to non-DHMC (cell viability curves, IC50s) [3]: increased sensitivity
Compound: CC(C)NC[C@@H](C(=O)N1CCN(c2ncnc3c2[C@H](C)C[C@H]3O)CC1)c1ccc(Cl)cc1 [ipatasertib, Ipatasertib]

Sensitivity of DHMC compared to non-DHMC (cell viability curves, IC50s) [5]: increased sensitivity
Compound: dimethyl-doxorubicin
